The results in this text go back to US8785455B2, “Polymorph of linagliptin benzoate” (Sandoz AG, priority 2011, dated 2014).

Data set [1] is described as follows: stability upon storage at conditions of high relative humidity. It counts as physicochemical.
Data set [2] in a line: dynamic water vapor sorption/desorption (moisture sorption isotherm). It counts as physicochemical. The settings on record: for hygroscopicity (in words): comparison of moisture sorption isotherms, FIGS. 4 and 5; for water uptake: from about 3 to 90% relative humidity at about 25° C., w % = weight % of water in relation to total weight. As to the method:
The water uptake of the crystalline forms of Linagliptin benzoate was determined by dynamic water vapor sorption/desorption. Therefore both forms were conditioned at about 28% relative humidity (RH) and the initial water content was determined by Karl-Fischer-titration. Then a moisture sorption experiment was performed with an SPSx-1μ moisture sorption analyzer (Projekt Messtechnik, Ulm) by stepwise increasing the RH in the range of about 3% RH to about 90% RH within approximately 2.5 days at 25±0.1° C.

Regarding `CC#CCn1c(N2CCC[C@@H](N)C2)nc2c1c(=O)n(Cc1nc(C)c3ccccc3n1)c(=O)n2C` [Linagliptin benzoate form II, Linagliptin benzoate], the stability upon storage entry in data set [1] was “more stable than form I”. Moreover, in data set [2], the “hygroscopicity (in words)” value is given as “significantly less hygroscopic than crystalline Linagliptin benzoate of WO2010/072776 A1” and the water uptake result is recorded as “about 2.0 w %”.

Regarding `CC#CCn1c(N2CCC[C@@H](N)C2)nc2c1c(=O)n(Cc1nc(C)c3ccccc3n1)c(=O)n2C` [crystalline Linagliptin benzoate of WO2010/072776 A1] [reference compound], the “hygroscopicity (in words)” value in data set [2] (listed as crystalline form of Linagliptin benzoate of WO2010/072776 A1) was “quite hygroscopic”. Moreover, in data set [2], the water uptake result was “about 9.5 w %”.
